# Results from ChEMBL document CHEMBL6115030, “Systematic All-Hydrocarbon Stapling Analysis for Cecropin A Generates a Potent and Stable Antimicrobial Peptide” (J Med Chem, 2025).
# Bridge positions count the residues as written; N and C are the ends. Square brackets hold non-standard residues; d marks the D form. Peptide text beside a SMILES is read from it. S5 = C=CCCC[C@](C)(N)C(=O)O
# Columns and labels:
# Pseudomonas aeruginosa [1] = test: Antibacterial activity against Pandrug-resistant Pseudomonas aeruginosa assessed as inhibition of bacterial growth measured after 24 hrs by broth microdilution method; type: functional
# Pseudomonas aeruginosa [2] = test: Antibacterial activity against Pseudomonas aeruginosa PAO1 assessed as inhibition of bacterial growth measured after 24 hrs by broth microdilution method; type: functional
# Acinetobacter baumannii = test: Antibacterial activity against Pandrug-resistant Acinetobacter baumannii assessed as inhibition of bacterial growth measured after 24 hrs by broth microdilution method; type: functional
# Staphylococcus aureus = test: Antibacterial activity against Staphylococcus aureus ATCC 25923 assessed as inhibition of bacterial growth measured after 24 hrs by broth microdilution method; type: functional
# Pseudomonas aeruginosa [3] = test: Antibacterial activity against Carbapenem-resistant Pseudomonas aeruginosa assessed as inhibition of bacterial growth measured after 24 hrs by broth microdilution method; type: functional
# Klebsiella pneumoniae [4] = test: Antibacterial activity against Klebsiella pneumoniae ATCC 13883 assessed as inhibition of bacterial growth measured after 24 hrs by broth microdilution method; type: functional
# Klebsiella pneumoniae [5] = test: Antibacterial activity against Carbapenem-resistant Klebsiella pneumoniae assessed as inhibition of bacterial growth measured after 24 hrs by broth microdilution method; type: functional
# Shigella flexneri = test: Antibacterial activity against Shigella flexneri 301 assessed as inhibition of bacterial growth measured after 24 hrs by broth microdilution method; type: functional
# Salmonella typhimurium = test: Antibacterial activity against Salmonella typhimurium assessed as inhibition of bacterial growth measured after 24 hrs by broth microdilution method; type: functional, Salmonella enterica subsp. enterica serovar Typhimurium; settings: Salmonella enterica
# [6] = Hemolytic activity in human RBC assessed as hemolysis incubated for 1 hr by microplate reader; type: toxicity, cell-based, Erythrocyte; settings: erythrocyte, 1 h
SMILES,MIC (Pseudomonas aeruginosa [1]),MIC (Pseudomonas aeruginosa [2]),MIC (Acinetobacter baumannii),MIC (Staphylococcus aureus),MIC (Pseudomonas aeruginosa [3]),MIC (Klebsiella pneumoniae [4]),MIC (Klebsiella pneumoniae [5]),MIC (Shigella flexneri),MIC (Salmonella typhimurium),Activity [6]
CC[C@H](C)[C@H](NC(=O)CNC(=O)[C@H](CC(=O)O)NC(=O)[C@H](CCCNC(=N)N)NC(=O)[C@@H](NC(=O)[C@H](CC(N)=O)NC(=O)[C@H](CCC(N)=O)NC(=O)CNC(=O)[C@@H](NC(=O)[C@H](CCCCN)NC(=O)[C@H](CCC(=O)O)NC(=O)[C@@H](NC(=O)[C@H](CCCCN)NC(=O)[C@H](CCCCN)NC(=O)[C@H](Cc1ccccc1)NC(=O)[C@H](CC(C)C)NC(=O)[C@H](CCCCN)NC(=O)[C@H](Cc1c[nH]c2ccccc12)NC(=O)[C@H](CCCCN)NC(C)=O)[C@@H](C)CC)C(C)C)[C@@H](C)CC)C(=O)N[C@H](C(=O)N[C@@H](CCCCN)C(=O)N[C@@H](C)C(=O)NCC(=O)N1CCC[C@H]1C(=O)N[C@@H](C)C(=O)N[C@H](C(=O)N[C@@H](C)C(=O)N[C@@]1(C)CCC/C=C\CCC[C@@](C)(C(=O)N[C@H](C(=O)N[C@@H](CCC(N)=O)C(=O)N[C@H](C(=O)N[C@@H](C)C(=O)N[C@@H](CCCCN)C(N)=O)[C@@H](C)CC)[C@@H](C)O)NC(=O)[C@H](CCC(N)=O)NC(=O)CNC(=O)[C@H](C(C)C)NC1=O)C(C)C)[C@@H](C)CC (Ac-KWKLFKKIEKVGQNIRDGIIKAGPAVA[S5]VGQ[S5]TQIAK-NH2; staple (Z) 28-32),25 µM,6.25 µM,< 0.78 µM,3.13 µM,> 100 µM,3.13 µM,6.25 µM,1.56 µM,6.25 µM,
CC[C@H](C)[C@H](NC(=O)CNC(=O)[C@H](CC(=O)O)NC(=O)[C@H](CCCNC(=N)N)NC(=O)[C@@H](NC(=O)[C@H](CC(N)=O)NC(=O)[C@H](CCC(N)=O)NC(=O)CNC(=O)[C@@H](NC(=O)[C@H](CCCCN)NC(=O)[C@H](CCC(=O)O)NC(=O)[C@@H](NC(=O)[C@H](CCCCN)NC(=O)[C@H](CCCCN)NC(=O)[C@H](Cc1ccccc1)NC(=O)[C@H](CC(C)C)NC(=O)[C@H](CCCCN)NC(=O)[C@H](Cc1c[nH]c2ccccc12)NC(=O)[C@H](CCCCN)NC(C)=O)[C@@H](C)CC)C(C)C)[C@@H](C)CC)C(=O)N[C@H](C(=O)N[C@@H](CCCCN)C(=O)N[C@@H](C)C(=O)NCC(=O)N1CCC[C@H]1C(=O)N[C@@H](C)C(=O)N[C@@]1(C)CCC/C=C\CCC[C@@](C)(C(=O)N[C@@H](CCC(N)=O)C(=O)N[C@@H](C)C(=O)N[C@H](C(=O)N[C@@H](CCC(N)=O)C(=O)N[C@H](C(=O)N[C@@H](C)C(=O)N[C@@H](CCCCN)C(N)=O)[C@@H](C)CC)[C@@H](C)O)NC(=O)[C@H](C(C)C)NC(=O)[C@H](C(C)C)NC(=O)[C@H](C)NC1=O)[C@@H](C)CC (Ac-KWKLFKKIEKVGQNIRDGIIKAGPA[S5]AVV[S5]QATQIAK-NH2; staple (Z) 26-30),25 µM,6.25 µM,< 0.78 µM,3.13 µM,> 100 µM,3.13 µM,12.5 µM,1.56 µM,6.25 µM,Non-toxic
CC[C@H](C)[C@H](NC(=O)CNC(=O)[C@H](CC(=O)O)NC(=O)[C@H](CCCNC(=N)N)NC(=O)[C@@H](NC(=O)[C@H](CC(N)=O)NC(=O)[C@H](CCC(N)=O)NC(=O)CNC(=O)[C@@H](NC(=O)[C@H](CCCCN)NC(=O)[C@H](CCC(=O)O)NC(=O)[C@@H](NC(=O)[C@H](CCCCN)NC(=O)[C@H](CCCCN)NC(=O)[C@H](Cc1ccccc1)NC(=O)[C@H](CC(C)C)NC(=O)[C@H](CCCCN)NC(=O)[C@H](Cc1c[nH]c2ccccc12)NC(=O)[C@H](CCCCN)NC(C)=O)[C@@H](C)CC)C(C)C)[C@@H](C)CC)C(=O)N[C@H](C(=O)N[C@@H](CCCCN)C(=O)N[C@@H](C)C(=O)NCC(=O)N1CCC[C@H]1C(=O)N[C@@]1(C)CCC/C=C\CCC[C@@](C)(C(=O)NCC(=O)N[C@@H](CCC(N)=O)C(=O)N[C@@H](C)C(=O)N[C@H](C(=O)N[C@@H](CCC(N)=O)C(=O)N[C@H](C(=O)N[C@@H](C)C(=O)N[C@@H](CCCCN)C(N)=O)[C@@H](C)CC)[C@@H](C)O)NC(=O)[C@H](C(C)C)NC(=O)[C@H](C)NC(=O)[C@H](C(C)C)NC1=O)[C@@H](C)CC (Ac-KWKLFKKIEKVGQNIRDGIIKAGP[S5]VAV[S5]GQATQIAK-NH2; staple (Z) 25-29),25 µM,6.25 µM,< 0.78 µM,3.13 µM,> 100 µM,3.13 µM,6.25 µM,1.56 µM,3.13 µM,Non-toxic
